Columns and labels:
Nfe2l2 = test: Relative gene expression of Nfe2l2 in BMCs (qRT-PCR); type: cell-based, mouse; conditions: 2 μM, 4 h
Description: Primary bone marrow cells (BMCs) were isolated from 8–12-week-old male C57BL/6 mice (25–30 g, AnLab, Czech Republic). Mice were housed under standard conditions. BMCs were isolated as follows: The day before isolation, phosphate-buffered saline (PBS), ACK Lysis Buffer (A10492-01, Thermo Fisher Scientific), and Iscove’s Modified Dulbecco’s Medium (IMDM) (12440-053, Thermo Fisher Scientific) were placed in a hypoxic chamber (InvivO2 400, Baker Ruskinn, UK) with adjustable oxygen control to equilibrate for the target oxygen concentrations. On the day of the experiment, animals were euthanized using ketamine/xylazine, and bilateral femurs were extracted. […] After hemolysis at room temperature using hypoxic ACK Lysis Buffer, nucleated BMCs were washed with hypoxic PBS + 2% FBS and counted using a TC20 automated cell counter (Bio-Rad). […]
3 Expression of NRF2 and its target genes in response to NO2FA derivatives. BMCs were cultured under 4% or 1% oxygen conditions and treated for 4 h with the tested NO 2 FAs (2 μM) or medium followed by quantification of (A) Nfe2l2, (B) Hmox1, and (C) Gclm with PCR. […] Data are expressed as mean ± SD from 3 to 7 independent experiments (n = 3–7), analyzed with one-way ANOVA with Dunnett’s multiple comparisons test compared to the controls (*p < 0.05; **p < 0.01; ***p < 0.001).

Gclm = test: GCLM protein level in BMCs (Western blot); type: cell-based, mouse; conditions: 2 μM, 7 h
Description: Primary bone marrow cells (BMCs) were isolated from 8–12-week-old male C57BL/6 mice (25–30 g, AnLab, Czech Republic). Mice were housed under standard conditions. BMCs were isolated as follows: The day before isolation, phosphate-buffered saline (PBS), ACK Lysis Buffer (A10492-01, Thermo Fisher Scientific), and Iscove’s Modified Dulbecco’s Medium (IMDM) (12440-053, Thermo Fisher Scientific) were placed in a hypoxic chamber (InvivO2 400, Baker Ruskinn, UK) with adjustable oxygen control to equilibrate for the target oxygen concentrations. On the day of the experiment, animals were euthanized using ketamine/xylazine, and bilateral femurs were extracted. BMCs were flushed with hypoxic (1% O2 unless stated otherwise) PBS supplemented with 2% fetal bovine serum (FBS; low endotoxin, FB-1101/500, Biosera, France). After hemolysis at room temperature using hypoxic ACK Lysis Buffer, nucleated BMCs were washed with hypoxic PBS + 2% FBS and counted using a TC20 automated cell counter (Bio-Rad). Cells were kept under hypoxic conditions prior to treatment. The medium for BMC culture, consisting of IMDM with 2% FBS and 1% penicillin/streptomycin (LM-A4118/100, Biosera, France), was supplemented with 10 ng/mL mouse IL-3, 10 ng/mL mouse IL-6, and 50 ng/mL mouse stem cell factor - SCF (213-13, 216-16, and 250-03, respectively; all from PeproTech). Cells were cultured at 37 °C in a humidified atmosphere containing 5% CO2 and the specified oxygen concentrations (21%, 4%, or 1%).
Briefly, 1.5 × 10^6 BMCs were placed in 0.2 mL of complete medium in 1.5 mL microtubes and incubated with 2 μM NO2FAs or the control (medium only) for 1 (NRF2), 4 (heme oxygenase-1, HO-1), or 7 (glutamate-cysteine ligase modifier subunit, GCLM) hours at the specified oxygen levels (21%, 4%, or 1%). Cells were then spun down and washed with PBS (from this step onward, cells were processed under atmospheric conditions). Next, cells were lysed in 60 μL RIPA buffer (89901, Thermo Fisher Scientific) containing protease and phosphatase inhibitors cocktail (78442, Thermo Fisher Scientific). Cell lysates were sonicated and centrifuged at 15,000g for 3 min at 4 °C, and 15 μL of lane marker (3900, Thermo Fisher Scientific) was added to the supernatants. Samples were boiled for 3 min at 95 °C. Equal volumes of lysates (15–45 μL/well) were loaded onto 7–15% SDS-polyacrylamide gels. Proteins were then transferred onto PVDF membranes (IPVH85R, EMD Millipore Corp.) and blocked with 5% nonfat dry milk in TBST. Membranes were incubated overnight at 4 °C with the following primary antibodies: anti-β-actin (1:1000; #3700, Cell Signaling Technology), antivinculin (1:10,000; #SAV9264, Sigma-Aldrich), anti-NRF2 (1:500; A308758, Lot 38410, Antibodies.com, UK), anti-HO-1 (1:1000; #43966, Cell Signaling Technology), antihistone H3 (1:2000; #4499, Cell Signaling Technology), or anti-GCLM (1:100; sc-55586, Santa Cruz Biotechnology). This was followed by incubation with corresponding HRP-linked secondary antibodies (antimouse IgG, #7076, 1:1000–5000; or antirabbit IgG, #7074, 1:1000–2000; both from Cell Signaling Technology) for 1 h at room temperature. Protein bands were visualized using an enhanced chemiluminescent substrate (SuperSignal 34577/34095, Thermo Fisher Scientific). The optical densities of detected proteins were measured using ImageJ v1.52 (NIH).
4 Expression of NRF2-target proteins HO-1 and GCLM. NO 2 FA derivatives upregulate the expression of NRF2-target proteins in mouse BMCs. BMCs were cultured under 21% or 1% oxygen conditions and treated with 2 μM of the tested NO 2 FAs for 4 h (A, B) or 7 h (C, D). HO-1 (A, B) and GCLM (C, D) expression in whole-cell lysates was subsequently analyzed. Results are presented as the fold change relative to control cells across different oxygen culture conditions. Data are expressed as mean ± SD from 3–5 independent experiments (n = 3–5). […]

NRF2 [1] = conditions: comparison of positional isomers; literature; cited from earlier work
NRF2 [2] = conditions: colon cancer cell line, versus shorter or longer chain derivatives; literature; cited from earlier work

SMILES	Nfe2l2 relative expression (Nfe2l2; 4% and 1% oxygen)	GCLM protein level, fold change relative to control (Gclm; 1% oxygen)	GCLM protein level, fold change relative to control (Gclm; 21% oxygen)	NRF2 activation (ARE-reporter luciferase) (NRF2 [1])	Nfe2l2 relative expression (Nfe2l2; 4% oxygen)	NRF2 induction (NRF2 [2])
CCCCCCCCC(CCCCCCCCC(=O)O)[N+](=O)[O-] (centres unmarked) [10-NO2SA, 10-Nitro Stearic acid]	no effects	no significant effects	no significant effects	–	–	–
CCCCCCCC/C=C(\CCCCCCCC(=O)O)[N+](=O)[O-] [9-NO2OA, (9E)-9-Nitro-oleic Acid]	–	nearly the same increase	nearly the same increase	preferentially activated NRF2 over 10-NO 2 OA	significantly increased	induced NRF2 more robustly
CCCCC/C=C\C/C(=C\CCCCCCCC(=O)O)[N+](=O)[O-] [10-NO2LA, (9E,12Z)-10-Nitro Linoleic Acid]	–	–	only significant at 21% oxygen	–	–	–
CCCCCCCC/C(=C\CCCCCCCC(=O)O)[N+](=O)[O-] [10-NO2OA, (9E)-10-Nitro-oleic Acid]	–	nearly the same increase	nearly the same increase	–	–	–

From PMC12169669, “Regio- and Stereoselective Synthesis of Nitro-fatty Acids as NRF2 Pathway Activators Working under Ambient or Hypoxic Conditions” (Journal of Medicinal Chemistry, 2025)
